Literature values as cited in patent US9272049B2, “Methods of stimulating fat mobilization using a polymer conjugated polyphenol” (NANOPHARMACEUTICALS LLC, priority 2005, dated 2016).

Columns and labels:
[1] = system: insulin-sensitive mammalian cell lines; details: several insulin-sensitive mammalian cell lines

**Q.** With `Oc1ccc(C=Cc2cc(O)cc(O)c2)cc1` [Resveratrol] as the compound, how does the fat accumulation [1] read?
**A.** reduce fat accumulation

**Q.** What about the fat accumulation (C. elegans) of the same compound?
**A.** reduce fat accumulation
